The values that follow come from patent publication US11311567B2, “Cytochrome P450 enzyme complexes and methods of treatment using the same” (Innovation Hammer LLC, priority 2004, dated 2022).

The conditions of data set [1]: basis for selecting preferred oxidants; cited from earlier work.
A further data set deals with human CPR (hCPR). Briefly: NADPH-dependent reduction of cytochrome C by CPR in microsomes after treatment with substrates. In kind it is biochemical. As to conditions: microsomes quantified against CPR and Cc; Cc oxidase activity inhibited by potassium cyanide. From the text:
The following example illustrates an application of human P450 compositions according to the present invention. Procedures followed previously described methods, e.g., U.S. Pat. No. 6,020,288; M. Markwell, et al., Methods of Enzymology 72:296-303 (1981); C. A. Mihaliak, et al., Methods in plant biochemistry 19:261-279 (1993); R. Donaldson, et al., Arch. Biochem. Biophys. 152:199-215 (1972); and M. Persans, et al., Plant Physiol. 109:1483-1490 (1995)).
Methods. CPR substrates have been assayed on various tissues (e.g., U.S. Pat. No. 6,020,288); therefore, response to human CPR (hCPR) was examined under controlled conditions on live index organisms. The direct effects of substrates on hCPR were measured by preparation of microsomes for quantification against CPR and Cc. Controls included equal concentrations of each individual treatment or substrate in surfactant and water. Untreated controls were maintained under identical conditions of culture. Oxidase activity of Cc was inhibited by potassium cyanide. The reaction was initiated by addition of Cc wherein NADPH-dependent reduction of Cc was monitored for increases in absorbance.

On to `Cc1cc2nc3c(=O)[nH]c(=O)nc-3n(C[C@H](O)[C@H](O)[C@H](O)COP(=O)(O)O)c2cc1C` [FMN, flavin mononucleotide], for which the “one-electron reduction potential (E0)” value in data set [1] was −313 mV. Also, in the data set with human CPR (hCPR), the “induction relative to components tested” value is recorded as “over 4.5 times”.

Consider `O=C(O)CO` [glycolate], for which, in data set [1], the “one-electron reduction potential (E0)” value is −290 mV.

As for nitrobenzoate, in data set [1], the “one-electron reduction potential (E0)” value is recorded as −396 mV.
